The values below come from PubChem BioAssay (NCI).

Several values for one entry are separate records, joined by “and”; a condition that tells them apart may be missing. Equal values may be shown once.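 Five concentrations, 48 hours, 96-well plates. GI50 is the concentration that inhibits growth by half. Definition used: TGI = concentration required for complete inhibition of growth.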

Some test systems named below: SNB-75 CNS; RPMI-8226 leukemia; HT29 colon; KM12 colon; NCI/ADR-RES ovarian; SF-295 CNS; MOLT-4 leukemia; OVCAR-4 ovarian; SK-MEL-5 melanoma; MCF7 breast.
Holding throughout (assay): NCI anticancer screen, dose series, 48 h

Regarding `COc1cc(C2C3=C(COC3=O)Nc3c2ccc2c3CCCC2)cc2c1OCO2` (stereo not given), the GI50 in the test on SNB-75 CNS is 0.0251 µM; in the test with RPMI-8226 leukemia, 0.0479 µM; in the test on HT29 colon, 0.0357 µM; in the test with KM12 colon, 0.0356 µM; in the test on NCI/ADR-RES ovarian, 0.0391 µM; in the test with SF-295 CNS, 0.0323 µM. In addition, the GI50 in the test with MOLT-4 leukemia is 0.13 µM; in the test on OVCAR-4 ovarian, 0.121 µM; with SK-MEL-5 melanoma, 0.0381 µM; in the test on MCF7 breast it was 0.0352 µM. Moreover, the TGI in the test on SNB-75 CNS came out at 14.5 µM; with RPMI-8226 leukemia it was 75.3 µM; in the test on HT29 colon, 3.97 µM; in the test on KM12 colon, 0.412 µM; in the test on NCI/ADR-RES ovarian, 19.1 µM; in the test with SF-295 CNS, 35.5 µM. In addition, the TGI with MOLT-4 leukemia is above 42.4 µM; with OVCAR-4 ovarian, above 100 µM; in the test with SK-MEL-5 melanoma, 0.199 µM; in the test with MCF7 breast, 8.74 µM.
With `CC(C)n1nc(-c2ccc3oc(N)nc3c2)c2c(N)ncnc21`, the GI50 was below 0.01 µM in the test on SNB-75 CNS; below 0.01 µM with RPMI-8226 leukemia; 0.0272 µM in the test on HT29 colon; 0.0222 µM and 0.0179 µM in the test with KM12 colon; 0.0251 µM and 0.0245 µM with NCI/ADR-RES ovarian; < 0.01 µM and 0.0102 µM in the test with SF-295 CNS. For the same compound, the GI50 in the test with MOLT-4 leukemia was 0.0325 µM and 0.0438 µM; in the test with OVCAR-4 ovarian, below 0.01 µM; in the test on SK-MEL-5 melanoma, 0.0171 µM and < 0.0114 µM; with MCF7 breast it was below 0.01 µM. Further, the TGI in the test on SNB-75 CNS was 0.0532 µM and 0.0211 µM; in the test with RPMI-8226 leukemia it was 1.1 µM and 3.68 µM; with HT29 colon, 10.8 µM and 5.32 µM; with KM12 colon, 5.01 µM and 2.24 µM; in the test with NCI/ADR-RES ovarian it was 0.58 µM and 0.83 µM; in the test on SF-295 CNS, 0.0472 µM and 0.0773 µM. The TGI is 5.9 µM and 9.49 µM with MOLT-4 leukemia; 0.077 µM and 0.0569 µM in the test on OVCAR-4 ovarian; 0.143 µM and 0.0865 µM in the test with SK-MEL-5 melanoma; 2.87 µM and 4.12 µM with MCF7 breast.
`CC(C)CC(Nc1c(O)ccc2ccccc12)C(=O)O` (stereo not given): the TGI with SNB-75 CNS is above 100 µM; in the test with RPMI-8226 leukemia it was above 100 µM; with HT29 colon it was above 100 µM; in the test on KM12 colon, above 100 µM; in the test on NCI/ADR-RES ovarian it was above 100 µM; in the test with SF-295 CNS it was 66.6 µM. The TGI in the test with MOLT-4 leukemia was above 100 µM; in the test on OVCAR-4 ovarian, above 100 µM; in the test on SK-MEL-5 melanoma it was 38.7 µM; in the test with MCF7 breast, above 100 µM.
As for `CCCCNC(=O)c1cc(NCc2cc(O)ccc2O)ccc1O`, the GI50 in the test with SNB-75 CNS is 18.5 µM; in the test with RPMI-8226 leukemia it was 1.76 µM; with HT29 colon it was 21.5 µM; in the test with KM12 colon, 14.4 µM; in the test on NCI/ADR-RES ovarian it was 25 µM; with SF-295 CNS, 46.2 µM. Moreover, the GI50 in the test with MOLT-4 leukemia was 4.02 µM; with OVCAR-4 ovarian it was 12.3 µM; with SK-MEL-5 melanoma it was 15.4 µM; in the test on MCF7 breast, 12.4 µM. The TGI in the test on SNB-75 CNS is above 100 µM; in the test on RPMI-8226 leukemia it was 7.85 µM; in the test with HT29 colon it was 46.8 µM; with KM12 colon, 57.7 µM; with NCI/ADR-RES ovarian, above 100 µM; with SF-295 CNS it was above 100 µM. The TGI in the test with MOLT-4 leukemia stood at 44.4 µM; in the test with OVCAR-4 ovarian, 24.8 µM; in the test with SK-MEL-5 melanoma it was 29.6 µM; in the test with MCF7 breast, 39.8 µM.
Take `Cc1cc(C(=O)NC(CCC(=O)O)C(=O)O)sc1CCC1CNc2nc(N)[nH]c(=O)c2C1` (stereo not given): the TGI in the test with SNB-75 CNS, in the test with RPMI-8226 leukemia, in the test with HT29 colon, in the test on KM12 colon, in the test on NCI/ADR-RES ovarian and in the test on SF-295 CNS was above 100 µM in each case. Moreover, the TGI with MOLT-4 leukemia, in the test on OVCAR-4 ovarian, in the test with SK-MEL-5 melanoma and with MCF7 breast was above 100 µM each time. Also, the GI50 in the test on RPMI-8226 leukemia was 0.15 µM and 0.229 µM; with HT29 colon, < 0.0198 µM and 0.0322 µM; in the test on KM12 colon, 0.0383 µM and 0.0937 µM; in the test on NCI/ADR-RES ovarian, 0.0499 µM and 0.0758 µM; with SF-295 CNS, 0.0537 µM and 0.0973 µM; with MOLT-4 leukemia, 0.0297 µM and 0.0453 µM. Further, the GI50 in the test with OVCAR-4 ovarian is 0.121 µM and 0.167 µM; in the test with SK-MEL-5 melanoma it was 0.056 µM and 0.279 µM; with MCF7 breast it was < 0.0114 µM and 0.0346 µM.
Consider `C/C(=N\N=C(\[Se])N(C)C)c1ccccn1`, for which the TGI in the test on SNB-75 CNS came out at 15.5 µM; in the test with RPMI-8226 leukemia, 53.2 µM; in the test with HT29 colon it was 14.2 µM; in the test on KM12 colon, 17.9 µM; with NCI/ADR-RES ovarian, 1.67 µM; with SF-295 CNS it was 12 µM. In addition, the TGI with MOLT-4 leukemia was found to be 7.8 µM; with OVCAR-4 ovarian it was 13.9 µM; in the test with SK-MEL-5 melanoma, 1.75 µM; with MCF7 breast it was 8.15 µM.
As for `COc1cc2ncnc(Nc3ccc4c(cnn4Cc4ccccc4)c3)c2cc1OC`, the GI50 in the test with SNB-75 CNS is above 25 µM; in the test on RPMI-8226 leukemia, 11.2 µM; with HT29 colon, 8.77 µM; in the test with KM12 colon it was 18.7 µM; in the test on NCI/ADR-RES ovarian, above 19.5 µM; in the test with SF-295 CNS it was above 20.2 µM. Further, the GI50 in the test on MOLT-4 leukemia is 13.5 µM; in the test on OVCAR-4 ovarian it was above 25 µM; with SK-MEL-5 melanoma it was above 17.5 µM; with MCF7 breast, above 25 µM. Further, the TGI with SNB-75 CNS, in the test with RPMI-8226 leukemia, with HT29 colon, in the test on KM12 colon, in the test on NCI/ADR-RES ovarian and in the test with SF-295 CNS was above 25 µM in each case. Moreover, the TGI in the test on MOLT-4 leukemia, with OVCAR-4 ovarian, in the test with SK-MEL-5 melanoma and in the test on MCF7 breast was above 25 µM throughout.
Consider `CCOC(=O)c1oc2ccc([N+](=O)[O-])c3c2c1CCC3`, for which the TGI in the test on SNB-75 CNS is 33.5 µM; in the test with RPMI-8226 leukemia it was above 100 µM; with HT29 colon, above 100 µM; in the test with KM12 colon, above 100 µM; in the test with NCI/ADR-RES ovarian it was above 100 µM; with SF-295 CNS, 53.9 µM. In addition, the TGI in the test with MOLT-4 leukemia, in the test with OVCAR-4 ovarian, with SK-MEL-5 melanoma and in the test with MCF7 breast was above 100 µM each time.
With `O=S1(=O)CS(=O)(=O)OCCO1`, the GI50 is 56.9 µM in the test with SNB-75 CNS; 25.7 µM with NCI/ADR-RES ovarian; 43.1 µM with SF-295 CNS; 18.4 µM in the test on MOLT-4 leukemia; above 56.6 µM in the test on SK-MEL-5 melanoma; 39.1 µM with MCF7 breast. The TGI with SNB-75 CNS is 57.2 µM; with RPMI-8226 leukemia, 599 µM; with HT29 colon, 347 µM; in the test with KM12 colon, 121 µM; with NCI/ADR-RES ovarian, 89.6 µM and 270 µM; in the test on SF-295 CNS, 121 µM. Further, the TGI amounted to 100 µM in the test on MOLT-4 leukemia, 130 µM in the test with OVCAR-4 ovarian, 87.7 µM with SK-MEL-5 melanoma and 348 µM in the test on MCF7 breast.
